Data as given in paper PMC9154192 (PLoS Biology, 2022).
Converted amounts (≈) assume the structure as drawn. “And” between values parts separate entries of the source, which are not always exact repeats. Equal values may be shown once. Read-outs that look alike come from different tables or passages of the source.

How the values were obtained:
[1] = test system: M. kansasii; test: microbe, parasite or virus in culture; type: cell-based; conditions: Mycobacterium kansasii
[2] = test system: M. kyorinense; test: microbe, parasite or virus in culture; type: cell-based; conditions: Mycobacterium kyorinense
[3] = test system: M. tuberculosis H37Rv; type: cell-based, Mycobacterium tuberculosis; conditions: for CFU/ml (average) / CFU/ml, single values / Intracellular M. tuberculosis, % (Drug Free = 100.0): Fig 3A, H37Rv
[4] = test system: M. aubagnense; test: microbe, parasite or virus in culture; type: cell-based, Mycobacterium aubagnense; conditions: Mycolicibacterium aubagnense
[5] = test system: M. tuberculosis H37Ra; test: microbe, parasite or virus in culture; type: cell-based, Mycobacterium tuberculosis; conditions: Mycobacterium tuberculosis, H37RA
[6] = test system: M. chitae; test: microbe, parasite or virus in culture; type: cell-based, Mycobacterium chitae; conditions: Mycolicibacterium chitae
[7] = test system: XDR M. tuberculosis (KMRC 00203–00197); type: cell-based, Mycobacterium tuberculosis; conditions: for log reduction (CFU): 7 days
[8] = test system: XDR M. tuberculosis; test: Luminescence-based microbial cell viability assay; parameters: species or system Mycobacterium tuberculosis
[9] = test system: M. colombiense; test: microbe, parasite or virus in culture; type: cell-based; conditions: Mycobacterium colombiense
[10] = in vitro; type: cell-based, murine; conditions: mouse
In short: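 Testing relied on two colorimetric viability methods, WST-1 and MTT, carried out as described in prior work to measure cytotoxic effects.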

[11] = test system: M. intracellulare; test: microbe, parasite or virus in culture; type: cell-based; conditions: Mycobacterium intracellulare
[12] = test system: XDR M. tuberculosis; type: cell-based, Mycobacterium tuberculosis
[13] = in vitro; type: cell-based; conditions: human
Description: A549 human pulmonary epithelial cells (KCLB 10185), human embryonic kidney (HEK) 293 cells (KCLB 21573), human THP-1 leukemia cells (KCLB 40202), human neuroblastoma SH-SY5Y cells (KCLB 22266), Murine Raw 264.7 macrophages (KCLB 40071), and L929 murine fibroblasts (KCLB 10001) were purchased from the KCLB (Seoul, Korea). Cytotoxicity testing was performed using the MTT assay and the WST-1 cell viability assay as previously described.

[14] = test system: M. goodie; test: microbe, parasite or virus in culture; type: cell-based; conditions: Mycobacterium
[15] = test system: M. marseiliense; test: microbe, parasite or virus in culture; type: cell-based; conditions: Mycobacterium
[16] = test system: M. neoaurum; test: microbe, parasite or virus in culture; type: cell-based, Mycobacterium neoaurum; conditions: Mycolicibacterium neoaurum
[17] = test system: M. bovis; test: microbe, parasite or virus in culture; type: cell-based; conditions: Mycobacterium tuberculosis variant bovis
[18] = test system: M. tuberculosis H37Rv; test: microbe, parasite or virus in culture; type: cell-based, Mycobacterium tuberculosis
[19] = test system: M. gordonae; test: microbe, parasite or virus in culture; type: cell-based; conditions: Mycobacterium gordonae
[20] = test system: M. heraklionease; test: microbe, parasite or virus in culture; type: cell-based; conditions: Mycobacterium
[21] = test system: M. massiliense; test: microbe, parasite or virus in culture; type: cell-based, Mycobacterium massiliense; conditions: Mycobacteroides abscessus
[22] = test system: M. xenopi; test: microbe, parasite or virus in culture; type: cell-based; conditions: Mycobacterium xenopi
[23] = test system: M. tuberculosis H37Rv; type: in vivo, BALB/c mice; parameters: Efficacy in BALB/C mouse model of pulmonary tuberculosis, Average / Efficacy in BALB/C mouse model of pulmonary tuberculosis, values of mice 1-6: unit not given here; conditions: Fig 4C
[24] = test system: M. tuberculosis H37Rv; test: Luminescence-based microbial cell viability assay; parameters: species or system Mycobacterium tuberculosis; conditions: for RLU/50ul (replicates1-3), single values / RLU/ml (×100) / RLU/50ul (average): Fig 2C
[25] = test system: M. arupense; test: microbe, parasite or virus in culture; type: cell-based, Mycobacterium arupense; conditions: Mycolicibacter arupensis

SMILES: COC(=O)[C@@H]1CCC(=O)N1Cc1cc2ccc(OC)cc2c2cc(OC)c(OC)cc12 [PP1S, (S)-N-[(2,3,6-Trimethoxy-10-phenanthryl)methyl]-pyroglutamic acid methyl ester]
- MIC [1]: > 100 mg/L
- MIC [2]: > 100 mg/L
- CFU/ml (average) ([3]; drug conc. 1.6): 26333 CFU/ml
- CFU/ml, single values ([3]; drug conc. 1.6): 26400 CFU/ml and 26700 CFU/ml and 25900 CFU/ml
- Intracellular M. tuberculosis, % (Drug Free = 100.0) ([3]; drug conc. 1.6): 78.3%
- CFU/ml (average) ([3]; drug conc. 3.1): 21190 CFU/ml
- CFU/ml, single values ([3]; drug conc. 3.1): 20900 CFU/ml and 22200 CFU/ml and 20470 CFU/ml
- Intracellular M. tuberculosis, % (Drug Free = 100.0) ([3]; drug conc. 3.1): 63.0%
- CFU/ml (average) ([3]; drug conc. 6.3): 15203 CFU/ml
- CFU/ml, single values ([3]; drug conc. 6.3): 15200 CFU/ml and 14100 CFU/ml and 16310 CFU/ml
- Intracellular M. tuberculosis, % (Drug Free = 100.0) ([3]; drug conc. 6.3): 45.2%
- CFU/ml (average) ([3]; drug conc. 12.5): 8003 CFU/ml
- CFU/ml, single values ([3]; drug conc. 12.5): 8000 CFU/ml and 7500 CFU/ml and 8510 CFU/ml
- Intracellular M. tuberculosis, % (Drug Free = 100.0) ([3]; drug conc. 12.5): 23.8%
- CFU/ml (average) ([3]; drug conc. 25): 707 CFU/ml
- Intracellular M. tuberculosis, % (Drug Free = 100.0) ([3]; drug conc. 25): 2.1%
- growth of M. tuberculosis in macrophages (CFU) ([3]; H37Rv in Raw 264.7 cells, 3 days, concentration-dependent): significantly inhibited the growth
- MIC [4]: > 100 mg/L
- MIC [5]: 1.6 mg/L (≈ 3.78 µM)
- MIC [6]: > 100 mg/L
- CFU (replicates1-3), single values [7]: 9800 CFU and 11000 CFU and 9100 CFU and 4200 CFU and 13900 CFU and 20700 CFU and 20100 CFU and 12600 CFU and 16500 CFU and 28000 CFU and 112000 CFU and 92700 CFU and 90100 CFU and 36800 CFU and 38700 CFU and 24400 CFU and 24700 CFU and 22500 CFU
- log reduction (CFU) ([7]; at 0.8 μg/ml): 0.8
- log reduction (CFU) ([7]; at 1.6 μg/ml): 1.3
- RLU/50ul (replicates1-3), single values [8]: 370 RLU/50ul (2×) and 430 RLU/50ul and 270 RLU/50ul and 260 RLU/50ul and 320 RLU/50ul and 360 RLU/50ul and 340 RLU/50ul and 390 RLU/50ul and 420 RLU/50ul and 450 RLU/50ul and 590 RLU/50ul and 610 RLU/50ul and 670 RLU/50ul and 570 RLU/50ul and 550 RLU/50ul (2×) and 460 RLU/50ul and 440 RLU/50ul and 630 RLU/50ul and 790 RLU/50ul and 540 RLU/50ul and 580 RLU/50ul and 840 RLU/50ul and 860 RLU/50ul and 750 RLU/50ul and 640 RLU/50ul
- RLU/ml (×100) [8]: 69.1 RLU/ml (×100) and 105.8 RLU/ml (×100) and 137.3 RLU/ml (×100)
- concentration with significant antitubercular effect [8]: 1.56 µg/mL and 0.78 µg/mL
- MIC [9]: > 100 mg/L
- CC50 ([10]; L929): > 500 mg/L
- CC50 ([10]; L929, MTT assay (Table S1)): > 100 mg/L
- CC50 ([10]; RAW, MTT assay (Table S1)): > 100 mg/L
- CC50 ([10]; Raw264.7): > 500 mg/L
- MIC [11]: > 100 mg/L
- RFU/200 μl (replicates1-3), single values [12]: 28550 RFU/200 μl (2×) and 31600 RFU/200 μl and 31980 RFU/200 μl and 30880 RFU/200 μl and 29180 RFU/200 μl and 29520 RFU/200 μl and 28730 RFU/200 μl and 28570 RFU/200 μl and 47010 RFU/200 μl and 47100 RFU/200 μl and 48600 RFU/200 μl and 48210 RFU/200 μl and 50840 RFU/200 μl and 43460 RFU/200 μl and 43510 RFU/200 μl and 43540 RFU/200 μl and 47050 RFU/200 μl and 50580 RFU/200 μl and 50770 RFU/200 μl and 53600 RFU/200 μl and 53640 RFU/200 μl and 54810 RFU/200 μl and 45790 RFU/200 μl and 45690 RFU/200 μl and 45900 RFU/200 μl and 50680 RFU/200 μl
- RFU/ml (×104) [12]: 14.9 RFU/ml (×104) and 23.3 RFU/ml (×104) and 25.1 RFU/ml (×104)
- concentration with significant antitubercular effect [12]: 1.56 µg/mL and 0.78 µg/mL
- CC50 ([13]; A549): > 500 mg/L
- CC50 ([13]; HEK-293): > 500 mg/L
- CC50 ([13]; SH-SY5Y): > 500 mg/L
- CC50 ([13]; THP-1): > 500 mg/L
- MIC [14]: > 100 mg/L
- MIC [15]: > 100 mg/L
- MIC [16]: > 100 mg/L
- MIC [17]: 1.6 mg/L (≈ 3.78 µM)
- in vitro antitubercular activities (S-form vs R-form) [18]: had in vitro antitubercular activities
- MIC ([18]; Mycobacterium tuberculosis, H37RV, read-out: MIC): 1.6 mg/L (≈ 3.78 µM)
- SI (CC50/MIC) ([18]; ratio of CC50 for L929 fibroblasts to MIC for strain H37Rv): >62.5
- MIC [19]: > 100 mg/L
- MIC [20]: > 100 mg/L
- MIC [21]: > 100 mg/L
- MIC [22]: > 100 mg/L
- Efficacy in BALB/C mouse model of pulmonary tuberculosis, Average ([23]; group dose 30, 6 mice): 2683333
- Efficacy in BALB/C mouse model of pulmonary tuberculosis, Average ([23]; group dose 100, 6 mice): 1028333
- RLU/50ul (replicates1-3), single values ([24]; drug conc. 0.39): 1910 RLU/50ul and 1870 RLU/50ul and 3370 RLU/50ul and 3410 RLU/50ul and 3790 RLU/50ul and 1810 RLU/50ul and 1790 RLU/50ul and 1970 RLU/50ul and 1850 RLU/50ul
- RLU/ml (×100) ([24]; drug conc. 0.39): 483.8 RLU/ml (×100)
- RLU/50ul (average) ([24]; drug conc. 0.39, average of each replicate set): 3523 RLU/50ul and 1857 RLU/50ul and 1877 RLU/50ul
- RLU/50ul (replicates1-3), single values ([24]; drug conc. 0.78): 1380 RLU/50ul and 1580 RLU/50ul and 2750 RLU/50ul and 2760 RLU/50ul and 3450 RLU/50ul and 2020 RLU/50ul and 2180 RLU/50ul and 1970 RLU/50ul and 1410 RLU/50ul
- RLU/ml (×100) ([24]; drug conc. 0.78): 433.3 RLU/ml (×100)
- RLU/50ul (average) ([24]; drug conc. 0.78, average of each replicate set): 2987 RLU/50ul and 2057 RLU/50ul and 1457 RLU/50ul
- RLU/50ul (replicates1-3), single values ([24]; drug conc. 1.56): 750 RLU/50ul and 850 RLU/50ul and 1460 RLU/50ul and 1290 RLU/50ul and 960 RLU/50ul and 1050 RLU/50ul and 1110 RLU/50ul and 1070 RLU/50ul and 790 RLU/50ul
- RLU/ml (×100) ([24]; drug conc. 1.56): 207.3 RLU/ml (×100)
- RLU/50ul (average) ([24]; drug conc. 1.56, average of each replicate set): 1237 RLU/50ul and 1077 RLU/50ul and 797 RLU/50ul
- concentration with significant antitubercular effect ([24]; luminescence-based assay): 1.56 µg/mL
- MIC [25]: > 100 mg/L
